According to patent US7491796B1, “Retro-inversion peptides that target GIT receptors and related methods” (Merrion Research III Limited, priority 1998, dated 2009):
Where no end group is shown, it is not given here. The star is where a group is joined. Dansyl = CN(C)c1cccc2c(S(=O)(=O)*)cccc12

Test system: Caco-2 cell membrane (P100) fractions
Test: Binding of dansylated peptides to Caco-2 cell membrane (P100) fractions by ELISA
Conditions: for Kd: Caco-2 P100 fractions, ELISA, read-out: KD (concentration of the peptide required to reach half maximal binding to Caco-2 P100 fractions); for Binding to P100 relative to ZElan021 (arbitrary value 1.00), P100 assay number 7: assay 7; for Binding to P100 relative to ZElan021 (arbitrary value 1.00), P100 assay number 7 / Binding to P100 relative to ZElan021 (arbitrary value 1.00), P100 assay number 8 / Binding to P100 relative to ZElan021 (arbitrary value 1.00), P100 assay number 4 / Binding to P100 relative to ZElan021 (arbitrary value 1.00), P100 assay number 5 / Binding to P100 relative to ZElan021 (arbitrary value 1.00), P100 assay number 6: peptide at 25 μg/ml; for Binding to P100 relative to ZElan021 (arbitrary value 1.00), P100 assay number 8: assay 8; for Binding to P100 relative to ZElan021 (arbitrary value 1.00), P100 assay number 4: assay 4; for Binding to P100 relative to ZElan021 (arbitrary value 1.00), P100 assay number 5: assay 5; for Binding to P100 relative to ZElan021 (arbitrary value 1.00), P100 assay number 6: assay 6
Procedure: Similar to the methods described in the above-referenced WO 98/51325, Caco-2 cell membrane (P100) and cytosolic (S100) fractions were prepared using a modification of the method described in Kinsella, B. T., O'Mahony, D. J. and G. A. FitzGerald, 1994, J. Biol. Chem. 269(47): 29914-29919. Confluent Caco-2 cell monolayers (grown in 75 cm^2 flasks for up to 1 week at 37° C. and 5% CO2) were washed twice in Dulbecco's PBS (DPBS) and the cells were harvested by centrifugation at 1000 rpm after treatment with 10 mM EDTA-DPBS. The cells were washed 3 times in DPBS and the final cell pellet was resuspended in 3 volumes of ice cold HED buffer (20 mM HEPES (pH 7.67), 1 mM EGTA, 0.5 mM dithiothreitol, 1 mM phenylmethylsulphonyl fluoride (PMSF)). The cells were allowed to swell for 5 min on ice prior to homogenization for 30 sec. The homogenates were centrifuged at 40,000 rpm for 45 min at 4° C. The supernatant (S100) was removed and the pellet (P100) was resuspended in HEDG buffer (20 mM HEPES (pH 7.67), 1 mM EGTA, 0.5 mM dithiothreitol, 100 mM NaCl, 10% glycerol, 1 mM PMSF). Protein concentrations were determined using the Bradford assay (Bradford, M. M., 1976, Anal. Biochem. 72: 248-254).
Binding of peptides to membrane (P100) was assessed by detection of the dansyl moiety incorporated in the peptide. Costar ninety six well ELISA plates were coated with P100 fractions (100 μg/ml in 0.05 M NaHCO3 (pH 9.6); 100 μl/well) overnight at 4° C. The plates were blocked with 2% Marvel-DPBS for 1 h at room temperature and washed 3 times in 1% DPBS-Tween. Peptides (200 μg/ml in 2% Marvel-DPBS) were serially diluted on the plates and incubated for 1 h at room temperature. The plates were washed 5 times and the dansylated peptides were detected using i) mouse anti-dansyl antiserum (Cytogen DB3-226.3; 1:1340 dilution in 2% Marvel-DPBS) or ii) rabbit anti-dansyl antiserum (La Jolla Diagnostics LAJD-119; 1:1000 dilutions) for 1 h at room temperature. The plates were washed 3 times prior to incubation with i) goat anti-mouse IgGλ:HRP antibody (Southern Biotechnology 1060-05; 1:10,000 dilution in 2% Marvel-DPBS) or ii) anti-rabbit IgG HRP (Sigma A-0545, 1:8,000) for 1 h at room temperature. After 3 washes, reactions were visualized using K Blue Substrate and Red Stop Solution (Neogen Co. 300176 & 301475, respectively) at 650 nm.
ZElan021, full length HAX42 [K(dns)-[…]] (SEQ ID NO:53; dansylated version is SEQ ID NO:8) was given the arbitrary value of 1.00 for binding to P100 at a given peptide concentration determined from the signal-to-noise ratio data. […] Assay number 1 was at 20 μg/ml; 2 and 3 were at 50 μg/ml; and 4 through 8 were at 25 μg/ml.
KD values, or the concentration of the peptide required to reach half maximal binding to Caco-2 P100 fractions, are given in Table 3 for ZElan021, full length HAX42, [K(dns)-[…]] (SEQ ID NO:53; dansylated version is SEQ ID NO:8), HAX42 fragment ZElan091, and the retro-inverted form of this fragment, ZElan146 as well as for ZElan018, full length PAX2, [K(dns)-STPPSREAYSRPYSVDS […]] (SEQ ID NO:7; dansylated version is SEQ ID NO:15), PAX2 fragment ZElan129, and the retro-inverted form of this fragment, ZELan144.

Substance: K(dns)-gtsngngccnydgp [ZElan146]
- Kd: 21.7 µM
- Binding to P100 relative to ZElan021 (arbitrary value 1.00), P100 assay number 7: 0.36
- Binding to P100 relative to ZElan021 (arbitrary value 1.00), P100 assay number 8: 0.72

Substance: K(dns)-PGDYNCCGNGNSTG [ZElan091]
- Kd: 0.75 µM
- Binding to P100 relative to ZElan021 (arbitrary value 1.00), P100 assay number 4: 2.02
- Binding to P100 relative to ZElan021 (arbitrary value 1.00), P100 assay number 5: 1.37
- Binding to P100 relative to ZElan021 (arbitrary value 1.00), P100 assay number 6: 1.20
- Binding to P100 relative to ZElan021 (arbitrary value 1.00), P100 assay number 7: 0.85

Substance: K(dns)-STPPSREAYSRPYSVDS DSDTNAKHSSHNRRLRTRSRPNG (K(Dansyl)STPPSREAYSRPYSVDSDSDTNAKHSSHNRRLRTRSRPNG) [ZElan018, dansylated full length PAX2]
- Kd: > 50 µM

Substance: K(dns)-TNAKHSSHNRRLRTR (K(Dansyl)TNAKHSSHNRRLRTR) [ZElan129, dansylated PAX2 15 mer fragment]
- Kd: 29.6 µM

Substance: K(dns)-SDHALGTNLRSDNAKEPGDYNCCGNGNSTGRKVFNRRRPSAIPT (K(Dansyl)SDHALGTNLRSDNAKEPGDYNCCGNGNSTGRKVFNRRRPSAIPT; cysteine pairing not given here) [ZElan021, dansylated full length HAX42]
- Kd: 6.7 µM
- Binding to P100 relative to ZElan021 (arbitrary value 1.00), P100 assay number 1 (assay 1, peptide at 20 μg/ml): 1.00
- Binding to P100 relative to ZElan021 (arbitrary value 1.00), P100 assay number 2 (assay 2, peptide at 50 μg/ml): 1.00
- Binding to P100 relative to ZElan021 (arbitrary value 1.00), P100 assay number 3 (assay 3, peptide at 50 μg/ml): 1.00
- Binding to P100 relative to ZElan021 (arbitrary value 1.00), P100 assay number 4: 1.00
- Binding to P100 relative to ZElan021 (arbitrary value 1.00), P100 assay number 5: 1.00
- Binding to P100 relative to ZElan021 (arbitrary value 1.00), P100 assay number 6: 1.00
- Binding to P100 relative to ZElan021 (arbitrary value 1.00), P100 assay number 7: 1.14
- Binding to P100 relative to ZElan021 (arbitrary value 1.00), P100 assay number 8: 0.94

Substance: K(dns)-rtrlrrnhsshkant [ZElan144]
- Kd: 28.8 µM
